According to patent publication US12528846B2, “BH4 stabilized peptides and uses thereof” (Dana-Farber Cancer Institute, Inc., priority 2013, dated 2026):
“Also recorded” adds a separate entry of the source. Positions of bridges follow the written chain, without caps; N, C: chain ends. Non-standard residues stand in square brackets, D forms with d. Residues, ends and D or L forms follow the SMILES beside them. S5 = C=CCCC[C@](C)(N)C(=O)O; Nle = CCCC[C@H](N)C(=O)O

Experiments:
[1] = test system: BAX-overexpressing HeLa cells; assay: Viability of transfected HeLa cells treated with staurosporine (CellTiter-Glo); format: cell-based; details: 325 nM staurosporine, 24-hour treatment
Procedure: Viability of the transfected cells subjected to 24-hour treatment with 325 nM staurosporine or no treatment with staurosporine was determined by addition of CellTiter-Glo reagent (Promega). The data shown in FIG. 20A are representative of three independent experiments.
This BCL-2-based rescue is negated upon co-expression of BAX with the L23A mutant form of BCL-2 (FIG. 20A).

[2] = target: T1, Recombinant BAX (Homo sapiens, UniProt Q07812); assay: Liposomal ANTS/DPX release, heat-induced BAX activation; format: biochemical; details: 500 nM BAX, liposomes, 37° C.
T1 construct: made in house

[3] = target: T1, Recombinant BAX; assay: HXMS of recombinant BAX with or without BCL-2 BH4 SAHBA; format: binding; details: two molar excess of peptide, 10 seconds to 2 hours
Procedure: In additional studies, recombinant BAX protein was labeled with deuterium in the presence or absence of a two molar access of BCL-2 BH4 SAHBA for 10 seconds, 1 minute, 10 minutes, and 2 hours. Following the corresponding incubation period in D20 buffer, each sample was quenched with ice-cold phosphate buffer (pH 2.5) and injected on a custom Waters NanoACQUITY UPLC HDX Manager for analysis as described in Wales et al. (Anal. Chem. 80:6815-6820, 2008). Mass spectra were obtained with a Synapt G2 mass spectrometer (Waters Corporation) and analyzed with the DynamX software package (Waters Corporation). The data shown in FIG. 15A are the average of two duplicate experiments, where the relative difference (Da) shown for each peptide is equivalent to the relative deuterium uptake of the corresponding peptide in the BAX alone control minus the relative deuterium uptake of the peptide in the BCL-2 BH4 SAHBA-bound BAX sample. A significant relative difference is established as 0.4 Da. […] A significant relative difference in uptake is observed in the region of BAX al and the loop between α1 and α2, indicative of structural stabilization of this region of BAX protein as a result of BCL-2 BH4 SAHBA binding.

[4] = target: T1, Recombinant BAX; assay: Liposomal ANTS/DPX release, BIM SAHBA-triggered BAX activation; format: biochemical; details: 1.5 μM BIM SAHBA, 0.75 μM BAX, variety of peptide concentrations
Procedure: In these experiments, the BCL-2 BH4 SAHBA and unmodified BCL-2 BH4 peptide were incubated with 1.5 μM BIM SAHBA (Gavathiotis et al., Nature 455:1076-1081, 2008), 0.75 μM recombinant BAX protein, and 5 μL liposomes loaded with the ANTS and DPX (described above) at a variety of different concentrations.
A complete panel of BCL-2 BH4 SAHBA alanine and glutamine point mutants (0.75 μM) were screened for inhibition of BIM SAHBA (0.75 μM)-triggered BAX activation (0.75 μM) using the liposome release assay described above. The data were normalized to a 100% percent positive control level of liposome release achieved using BIM SAHBA and BAX alone, after correction for any intrinsic fluorescence detected for each FITC-labeled BCL-2 BH4 SAHB (0%). […] The alanine scanning data are also useful for designing the placement of staples in the BCL-2 BH4 peptides.

[5] = target: T1, Recombinant BAX; assay: HXMS of BH4 SAHBs after pre-equilibration with recombinant BAX protein; format: binding; details: 15-minute pre-equilibration, 1:2 BAX protein to BH4 SAHB molar ratio
Procedure: (§1) The structural stability of the BCL-2 BH4 staple-scan panel of SAHBs was determined by hydrogen/deuterium mass spectrometry (HXMS). In these experiments, the BH4 SAHBs were labeled with deuterium for 2 seconds, 5 seconds, 10 seconds, 1 minute, 10 minutes, and 1 hour, followed by quenching with cold phosphate buffer (pH 2.5), and then immediately subjected to desalting and injection on a LCT Premier Mass Spectrometer (Waters Corporation). The relative uptake of deuterium was determined for each BH4 SAHB by dividing the mass of the corresponding undeuterated control. Labeling was performed with the BH4 SAHB peptide alone and following a 15-minute pre-equilibration with recombinant BAX protein (purified as previously described in Walensky et al. (Mol. Cell 24:199-210, 2006) and Gavathiotis et al. (Nature 455:1076-1081, 2008)) at a 1:2 BAX protein to BH4 SAHB peptide molar ratio.

[6] = target: T1, Recombinant BAX; assay: HXMS of recombinant BAX with liposomes, BIM SAHB with or without BCL-2 BH4 SAHBA; format: biochemical; details: molar equivalent of BIM SAHB plus two molar excess of peptide
Procedure: Recombinant BAX protein was pre-equilibrated for 15 min with liposomes in the presence or absence of a molar equivalent of BIM SAHB (FIG. 15B) or a molar equivalent of BIM SAHB and a two molar excess of BCL-2 BH4 SAHBA (FIG. 15C), and then labeled with deuterium for 10 seconds, 1 minute, 10 minutes, and 2 hours. Following the corresponding incubation period in D20 buffer, each sample was quenched with ice-cold guanidine chloride buffer (pH 2.6) and then subjected to proteolysis on ice for 5 minutes. The samples were next injected on a custom Waters NanoACQUITY UPLC HDX Manager for analysis as described above. Mass spectra were obtained with a Synapt G2 mass spectrometer (Waters Corporation) and analyzed with the DynamX software package (Waters Corporation). The data shown in FIG. 15B are the duplicate of two experiments, where the relative difference (Da) shown for each BAX peptide fragment is equivalent to the relative deuterium uptake of the peptide in the BIM SAHB-activated BAX sample minus the relative deuterium uptake of the corresponding peptide in the BAX alone control. […] Mass spectra were obtained with a Synapt G2 mass spectrometer (Waters Corporation) and analyzed with the DynamX software package (Waters Corporation). […]

[7] = Hydrogen/deuterium mass spectrometry (HXMS) of BH4 SAHB peptide alone (structural stability); format: physicochemical; details: deuterium labeling 2 seconds to 1 hour
Procedure: as §1

[8] = target: T2, endogenous BAX (Homo sapiens, UniProt Q07812); assay: Streptavidin pull-down of biotinylated SAHB from HeLa cell lysates; format: binding; details: 20 μM biotinylated peptide, 16 hrs at 4° C.
T2 construct: endogenous in cells; host or cells: HeLa
Procedure: HeLa cell lysates (0.5 mg) were incubated with vehicle (DMSO), biotinylated BCL-2 BH4 SAHBA (20 μM), or BCL-2 BH4 SAHBA L23A (20 μM) for 16 hrs at 4° C. prior to addition of high-capacity streptavidin agarose resin (Thermo Scientific). After three successive washes, associated protein was eluted from the resin into LDS sample buffer and analyzed by Western blot with the anti-BAX N20 antibody (Santa Cruz). […] The immunoblot in FIG. 19B is representative of three independent experiments.

[9] = target: T1, Recombinant BAX; assay: BAX 6A7 immunoprecipitation (N-terminal conformational activation); format: biochemical; details: 1 μM BAX, liposomes, 1 μM BIM SAHB, peptide 0-2.0 μM, 30 min
Procedure: An additional experiment was performed to determine whether BCL-2 BH4 SAHB binding would be capable of preventing the N-terminal unfolding characteristic of activated BAX. In this experiment, recombinant BAX was incubated with liposomes and a molar equivalent of BIM SAHB in the presence of increasing amounts of BCL-2 BH4 SAHBA or BCL-2 BH4 SAHBA L23A. After a 30 min pre-incubation period to allow for activation to proceed, the liposomal mixtures were subjected to immunoprecipitation with the BAX 6A7 antibody (Santa Cruz), which specifically recognizes the N-terminal epitope on BAX (residues 12-24) that is exposed during activation (Hsu et al., 1997). Immunoprecipitated protein was resolved by electrophoresis and immunoblotted with an antibody specific for BAX. […] Importantly, the L23A mutant version of the BH4 peptide, which was shown in the liposomal release assay to disrupt its inhibitory activity, had no effect on BAX 6A7 reactivity. The BAX 6A7 immunoprecipitation was carried out as follows. Recombinant BAX (1 μM) was mixed with liposomes and 1 μM BIM SAHB in the presence of increasing doses of BCL-2 BH4 SAHBA or BCL-2 BH4 SAHBA L23A (0 μM, 0.25 μM, 0.5 μM, 1.0 μM, and 2.0 μM). Following a 30 min incubation at room temperature, the mixture was immunoprecipitated with a-BAX 6A7 (Santa Cruz) and resolved by electrophoresis. […]

T1 sequence (Q07812 whole entry): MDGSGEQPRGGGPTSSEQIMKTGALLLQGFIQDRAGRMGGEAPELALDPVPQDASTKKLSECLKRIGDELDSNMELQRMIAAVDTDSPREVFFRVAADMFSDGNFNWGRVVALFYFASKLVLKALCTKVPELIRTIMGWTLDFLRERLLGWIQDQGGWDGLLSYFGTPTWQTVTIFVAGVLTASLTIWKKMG
T2 sequence (Q07812 whole entry): as above

Row | SMILES | apoptosis of transfected HeLa cells [1] | heat-induced activation of BAX and BAX-mediated poration [2] | deuterium uptake by BAX protein upon peptide engagement [3] | BAX activation in response to BIM SAHBA treatment (liposomal poration) [4] | deuterium uptake of BH4 SAHB upon addition of recombinant BAX protein [5] | differences in relative uptake of BIM SAHB-treated BAX compared to BAX alone [6] | relative deuterium uptake of BH4 SAHB peptide alone [7] | pull-down of BAX from HeLa cell lysates [8] | pull-down of BAX from HeLa cell lysates ([8]; listed as biotinylated-BCL-2 BH4 SAHBA) | BAX 6A7 reactivity (BIM SAHB-triggered BAX activation) [9]
1 | CN[C@@H]1C[C@H]2O[C@@](C)([C@@H]1OC)n1c3ccccc3c3c4c(c5c6ccccc6n2c5c31)C(=O)NC4 [staurosporine] | induces apoptosis |  |  |  |  |  |  |  |  | 
2 | CCCC[C@H](NC(=O)[C@@H](NC(=O)[C@@H](NC(=O)[C@H](CCC(=O)O)NC(C)=O)[C@@H](C)CC)C(C)C)C(=O)N[C@@H](CCCCN)C(=O)N[C@@H](Cc1ccc(O)cc1)C(=O)N[C@H](C(=O)N[C@@H](Cc1c[nH]cn1)C(=O)N[C@@H](Cc1ccc(O)cc1)C(=O)N[C@@H](CCCCN)C(=O)N[C@@H](CC(C)C)C(=O)N[C@@H](CO)C(=O)N[C@@]1(C)CCCC=CCCC[C@@](C)(C(=O)N[C@@H](Cc2c[nH]c3ccccc23)C(=O)N[C@@H](CC(=O)O)C(=O)N[C@@H](C)C(N)=O)NC(=O)[C@H](Cc2ccc(O)cc2)NC(=O)CNC(=O)[C@H](CCCNC(=N)N)NC1=O)[C@@H](C)CC [BCL-2 BH4 SAHBA] (Ac-EIV[Nle]KYIHYKLS[S5]RGY[S5]WDA-NH2; staple 13-17; N-terminus and C-terminus assumed) |  | dose-responsively decreased | decrease in deuterium uptake | dose-responsively decreased; also recorded: dose-responsively blocks | reduced uptake | complete suppression; also recorded: can block the changes in BAX conformation | markedly reduced uptake | specifically interacted | specifically immunoprecipitated | dose-responsively reduces; also recorded: dose-responsively inhibited
